Tests used:
[1] = target: T1, Muscarinic acetylcholine receptor M1 (Homo sapiens, UniProt P11229); assay type: functional, cell-based
T1 sequence (P11229 whole entry): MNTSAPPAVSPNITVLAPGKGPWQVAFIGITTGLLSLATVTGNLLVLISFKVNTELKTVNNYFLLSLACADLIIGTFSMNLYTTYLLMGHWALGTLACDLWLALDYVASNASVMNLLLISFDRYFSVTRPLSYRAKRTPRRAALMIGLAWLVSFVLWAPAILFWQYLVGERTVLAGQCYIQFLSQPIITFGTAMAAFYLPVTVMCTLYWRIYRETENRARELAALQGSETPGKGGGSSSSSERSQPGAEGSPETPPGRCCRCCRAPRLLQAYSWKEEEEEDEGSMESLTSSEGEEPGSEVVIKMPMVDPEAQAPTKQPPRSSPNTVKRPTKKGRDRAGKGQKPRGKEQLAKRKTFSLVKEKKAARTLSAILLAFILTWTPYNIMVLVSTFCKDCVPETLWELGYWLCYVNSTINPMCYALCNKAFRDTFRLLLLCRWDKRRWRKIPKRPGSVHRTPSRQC

[2] = target: Vascular endothelial growth factor receptor 2 (Homo sapiens, UniProt P35968); assay type: functional
Melanocortin receptor 3 = Melanocortin receptor 3 (Homo sapiens, UniProt P41968)
[3] = target: T1, Muscarinic acetylcholine receptor M1; assay type: functional
[4] = target: Gamma-aminobutyric acid receptor subunit alpha-1 (Rattus norvegicus, UniProt P62813); assay type: functional
[5] = target: Glutamate receptor ionotropic, NMDA 1 (Rattus norvegicus, UniProt P35439)
D(3) dopamine receptor = D(3) dopamine receptor (Homo sapiens, UniProt P35462)
Histamine H1 receptor = Histamine H1 receptor (Homo sapiens, UniProt P35367)
[6] = target: T2, Alpha-2A adrenergic receptor (Homo sapiens, UniProt P08913); assay type: functional, cell-based
T2 sequence (P08913 whole entry): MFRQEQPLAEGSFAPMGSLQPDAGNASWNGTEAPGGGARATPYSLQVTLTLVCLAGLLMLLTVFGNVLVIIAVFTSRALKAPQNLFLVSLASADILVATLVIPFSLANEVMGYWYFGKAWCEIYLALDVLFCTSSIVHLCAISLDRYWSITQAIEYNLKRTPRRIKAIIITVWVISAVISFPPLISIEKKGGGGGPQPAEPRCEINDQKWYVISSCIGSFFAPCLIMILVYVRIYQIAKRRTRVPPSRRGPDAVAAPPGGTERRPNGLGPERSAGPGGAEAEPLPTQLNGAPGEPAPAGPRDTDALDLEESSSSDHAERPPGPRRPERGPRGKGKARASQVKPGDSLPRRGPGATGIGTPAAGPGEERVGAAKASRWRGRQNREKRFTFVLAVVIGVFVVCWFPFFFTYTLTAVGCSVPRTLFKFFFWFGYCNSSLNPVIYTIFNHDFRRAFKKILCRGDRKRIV

Adenosine receptor A2a = Adenosine receptor A2a (Homo sapiens, UniProt P29274)
Histamine H2 receptor = Histamine H2 receptor (Homo sapiens, UniProt P25021); assay type: functional, cell-based
[7] = target: Sodium-dependent noradrenaline transporter (Homo sapiens, UniProt P23975)
[8] = target: Sodium-dependent dopamine transporter (Homo sapiens, UniProt Q01959)
[9] = target: 3',5'-cyclic-AMP phosphodiesterase 4D (Homo sapiens, UniProt Q08499); assay type: functional
[10] = target: T3, Amine oxidase [flavin-containing] A (Homo sapiens, UniProt P21397); assay type: functional
T3 sequence (P21397 whole entry): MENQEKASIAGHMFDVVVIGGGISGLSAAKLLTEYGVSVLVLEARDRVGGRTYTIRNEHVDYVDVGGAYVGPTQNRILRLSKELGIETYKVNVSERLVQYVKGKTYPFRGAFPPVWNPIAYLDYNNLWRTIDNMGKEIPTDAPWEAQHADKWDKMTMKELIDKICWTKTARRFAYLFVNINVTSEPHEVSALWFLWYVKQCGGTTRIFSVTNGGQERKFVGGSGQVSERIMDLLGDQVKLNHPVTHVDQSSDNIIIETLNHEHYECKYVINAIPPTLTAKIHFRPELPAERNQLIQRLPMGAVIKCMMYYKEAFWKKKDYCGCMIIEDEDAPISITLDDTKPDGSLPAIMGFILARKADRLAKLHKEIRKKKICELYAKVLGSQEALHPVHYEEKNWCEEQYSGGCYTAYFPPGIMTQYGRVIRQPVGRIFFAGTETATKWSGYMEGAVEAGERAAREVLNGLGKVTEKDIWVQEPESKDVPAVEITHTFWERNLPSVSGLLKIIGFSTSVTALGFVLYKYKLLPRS

[11] = target: T4, 5-hydroxytryptamine receptor 2C (Homo sapiens, UniProt P28335)
T4 sequence (P28335 whole entry): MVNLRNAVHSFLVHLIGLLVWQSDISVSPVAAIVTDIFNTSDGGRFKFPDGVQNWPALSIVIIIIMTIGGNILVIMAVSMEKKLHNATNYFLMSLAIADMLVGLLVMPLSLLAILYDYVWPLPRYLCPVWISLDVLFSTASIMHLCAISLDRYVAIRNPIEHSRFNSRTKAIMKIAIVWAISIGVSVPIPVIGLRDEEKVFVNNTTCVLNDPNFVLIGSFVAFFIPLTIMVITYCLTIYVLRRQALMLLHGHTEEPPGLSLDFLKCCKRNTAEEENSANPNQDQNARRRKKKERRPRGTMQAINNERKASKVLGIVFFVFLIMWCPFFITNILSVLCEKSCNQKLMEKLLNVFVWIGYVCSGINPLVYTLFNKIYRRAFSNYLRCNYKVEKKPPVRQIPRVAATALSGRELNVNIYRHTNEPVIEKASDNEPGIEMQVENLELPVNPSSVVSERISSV
Further: assay procedure not described here.

Sequence of Sodium-dependent dopamine transporter (Q01959 whole entry): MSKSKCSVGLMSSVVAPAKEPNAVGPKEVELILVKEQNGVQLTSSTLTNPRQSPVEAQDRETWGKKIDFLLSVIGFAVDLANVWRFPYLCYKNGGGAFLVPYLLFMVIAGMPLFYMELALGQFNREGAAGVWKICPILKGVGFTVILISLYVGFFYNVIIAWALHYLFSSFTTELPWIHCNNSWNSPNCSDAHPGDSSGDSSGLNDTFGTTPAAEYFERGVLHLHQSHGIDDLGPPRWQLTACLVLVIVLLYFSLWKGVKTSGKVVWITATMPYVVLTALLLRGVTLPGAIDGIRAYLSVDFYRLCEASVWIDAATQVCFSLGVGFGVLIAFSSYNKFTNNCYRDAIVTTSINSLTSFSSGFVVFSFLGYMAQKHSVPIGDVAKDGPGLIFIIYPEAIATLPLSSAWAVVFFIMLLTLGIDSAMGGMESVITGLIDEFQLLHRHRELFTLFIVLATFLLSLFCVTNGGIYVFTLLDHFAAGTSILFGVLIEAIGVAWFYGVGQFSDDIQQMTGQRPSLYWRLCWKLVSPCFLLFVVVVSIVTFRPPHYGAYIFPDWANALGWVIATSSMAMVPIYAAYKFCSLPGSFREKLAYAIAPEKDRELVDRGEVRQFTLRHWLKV
Sequence of Histamine H2 receptor (P25021 whole entry): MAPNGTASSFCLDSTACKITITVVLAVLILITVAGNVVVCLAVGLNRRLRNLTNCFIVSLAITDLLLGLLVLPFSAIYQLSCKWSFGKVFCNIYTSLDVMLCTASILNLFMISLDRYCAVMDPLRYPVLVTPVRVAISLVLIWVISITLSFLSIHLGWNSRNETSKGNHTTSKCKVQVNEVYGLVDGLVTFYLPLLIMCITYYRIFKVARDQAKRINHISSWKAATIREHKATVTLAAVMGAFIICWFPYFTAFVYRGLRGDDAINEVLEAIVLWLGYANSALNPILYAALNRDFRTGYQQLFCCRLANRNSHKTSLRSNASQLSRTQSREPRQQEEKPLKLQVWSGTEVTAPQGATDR
Sequence of Melanocortin receptor 3 (P41968 whole entry): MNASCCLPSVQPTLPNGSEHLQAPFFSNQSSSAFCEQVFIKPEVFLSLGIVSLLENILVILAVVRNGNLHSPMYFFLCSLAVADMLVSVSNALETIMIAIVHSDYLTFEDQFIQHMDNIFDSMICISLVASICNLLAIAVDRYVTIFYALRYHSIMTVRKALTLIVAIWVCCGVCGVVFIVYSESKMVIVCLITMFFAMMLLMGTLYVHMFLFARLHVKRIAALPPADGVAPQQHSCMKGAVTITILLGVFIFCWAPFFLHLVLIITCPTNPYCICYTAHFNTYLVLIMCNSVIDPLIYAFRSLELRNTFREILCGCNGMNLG
Sequence of Histamine H1 receptor (P35367 whole entry): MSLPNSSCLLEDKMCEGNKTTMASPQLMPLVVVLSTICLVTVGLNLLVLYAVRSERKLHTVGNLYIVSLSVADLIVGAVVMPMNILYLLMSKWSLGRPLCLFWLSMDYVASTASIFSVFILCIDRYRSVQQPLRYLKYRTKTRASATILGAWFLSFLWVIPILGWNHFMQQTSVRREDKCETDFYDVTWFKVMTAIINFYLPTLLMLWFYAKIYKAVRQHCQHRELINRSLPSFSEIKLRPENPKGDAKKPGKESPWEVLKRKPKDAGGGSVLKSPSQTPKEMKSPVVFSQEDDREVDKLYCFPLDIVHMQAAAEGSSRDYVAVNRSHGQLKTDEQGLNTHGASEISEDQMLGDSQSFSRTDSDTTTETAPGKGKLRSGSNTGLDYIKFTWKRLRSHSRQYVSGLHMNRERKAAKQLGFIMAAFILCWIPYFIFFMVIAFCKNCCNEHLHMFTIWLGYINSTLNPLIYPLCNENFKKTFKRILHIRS
Sequence of 3',5'-cyclic-AMP phosphodiesterase 4D (Q08499 whole entry): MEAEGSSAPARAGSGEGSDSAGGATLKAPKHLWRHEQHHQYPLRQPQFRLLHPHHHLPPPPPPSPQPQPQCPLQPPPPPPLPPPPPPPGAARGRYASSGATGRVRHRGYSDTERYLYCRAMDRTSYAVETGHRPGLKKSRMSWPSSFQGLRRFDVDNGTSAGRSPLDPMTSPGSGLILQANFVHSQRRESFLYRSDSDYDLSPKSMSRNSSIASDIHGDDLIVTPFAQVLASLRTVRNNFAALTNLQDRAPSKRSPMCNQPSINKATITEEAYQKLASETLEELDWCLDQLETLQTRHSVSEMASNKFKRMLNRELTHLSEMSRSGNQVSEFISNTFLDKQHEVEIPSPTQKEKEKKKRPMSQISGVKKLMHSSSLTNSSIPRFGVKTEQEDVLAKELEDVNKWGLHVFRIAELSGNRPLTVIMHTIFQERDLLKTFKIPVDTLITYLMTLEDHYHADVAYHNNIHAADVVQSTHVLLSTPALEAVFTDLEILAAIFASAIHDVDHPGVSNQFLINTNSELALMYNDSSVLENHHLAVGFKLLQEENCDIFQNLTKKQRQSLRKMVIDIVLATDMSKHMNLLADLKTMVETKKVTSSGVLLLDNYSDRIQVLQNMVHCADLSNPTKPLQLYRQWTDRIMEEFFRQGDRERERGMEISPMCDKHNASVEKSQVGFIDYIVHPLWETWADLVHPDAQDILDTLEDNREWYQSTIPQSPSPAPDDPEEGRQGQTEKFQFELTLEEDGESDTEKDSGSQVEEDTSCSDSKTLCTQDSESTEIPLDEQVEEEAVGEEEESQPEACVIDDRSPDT
Sequence of Sodium-dependent noradrenaline transporter (P23975 whole entry): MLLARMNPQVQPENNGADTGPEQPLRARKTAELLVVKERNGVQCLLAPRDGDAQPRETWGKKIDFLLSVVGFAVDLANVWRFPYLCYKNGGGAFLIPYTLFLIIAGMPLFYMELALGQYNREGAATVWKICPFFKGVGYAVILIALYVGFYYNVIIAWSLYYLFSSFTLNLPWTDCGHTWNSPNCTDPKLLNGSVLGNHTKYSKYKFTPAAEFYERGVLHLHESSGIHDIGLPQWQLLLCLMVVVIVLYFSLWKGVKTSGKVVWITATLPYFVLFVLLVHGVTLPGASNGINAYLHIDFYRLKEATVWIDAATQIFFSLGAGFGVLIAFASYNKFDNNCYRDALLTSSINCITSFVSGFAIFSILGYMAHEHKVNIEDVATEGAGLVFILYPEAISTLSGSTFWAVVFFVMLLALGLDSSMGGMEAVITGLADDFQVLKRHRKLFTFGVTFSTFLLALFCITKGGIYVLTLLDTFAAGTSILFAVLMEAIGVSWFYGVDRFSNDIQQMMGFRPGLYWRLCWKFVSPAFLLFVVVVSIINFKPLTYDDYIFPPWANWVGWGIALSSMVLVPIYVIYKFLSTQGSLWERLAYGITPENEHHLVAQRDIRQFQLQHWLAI
Sequence of Gamma-aminobutyric acid receptor subunit alpha-1 (P62813 whole entry): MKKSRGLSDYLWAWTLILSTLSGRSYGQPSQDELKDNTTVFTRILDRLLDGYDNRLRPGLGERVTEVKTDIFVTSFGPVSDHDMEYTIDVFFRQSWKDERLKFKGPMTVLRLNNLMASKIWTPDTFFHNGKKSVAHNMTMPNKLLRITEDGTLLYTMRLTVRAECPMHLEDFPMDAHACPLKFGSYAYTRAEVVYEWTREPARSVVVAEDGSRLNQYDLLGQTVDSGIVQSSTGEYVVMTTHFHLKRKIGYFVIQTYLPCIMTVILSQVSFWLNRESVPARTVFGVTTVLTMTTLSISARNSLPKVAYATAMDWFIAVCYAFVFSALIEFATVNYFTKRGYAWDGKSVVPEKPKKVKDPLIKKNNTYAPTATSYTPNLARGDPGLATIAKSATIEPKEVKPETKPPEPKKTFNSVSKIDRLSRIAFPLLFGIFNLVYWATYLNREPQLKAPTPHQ
Sequence of D(3) dopamine receptor (P35462 whole entry): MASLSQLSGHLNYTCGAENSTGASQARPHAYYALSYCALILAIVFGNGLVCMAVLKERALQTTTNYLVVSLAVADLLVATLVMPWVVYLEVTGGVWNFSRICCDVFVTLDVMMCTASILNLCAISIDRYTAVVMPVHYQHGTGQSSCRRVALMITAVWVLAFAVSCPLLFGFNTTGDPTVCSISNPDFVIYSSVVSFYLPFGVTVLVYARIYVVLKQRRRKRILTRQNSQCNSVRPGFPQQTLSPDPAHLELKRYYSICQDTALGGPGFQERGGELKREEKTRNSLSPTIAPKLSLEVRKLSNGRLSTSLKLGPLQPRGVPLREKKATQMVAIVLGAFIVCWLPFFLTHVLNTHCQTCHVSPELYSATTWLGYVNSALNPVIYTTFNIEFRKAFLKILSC
Sequence of Adenosine receptor A2a (P29274 whole entry): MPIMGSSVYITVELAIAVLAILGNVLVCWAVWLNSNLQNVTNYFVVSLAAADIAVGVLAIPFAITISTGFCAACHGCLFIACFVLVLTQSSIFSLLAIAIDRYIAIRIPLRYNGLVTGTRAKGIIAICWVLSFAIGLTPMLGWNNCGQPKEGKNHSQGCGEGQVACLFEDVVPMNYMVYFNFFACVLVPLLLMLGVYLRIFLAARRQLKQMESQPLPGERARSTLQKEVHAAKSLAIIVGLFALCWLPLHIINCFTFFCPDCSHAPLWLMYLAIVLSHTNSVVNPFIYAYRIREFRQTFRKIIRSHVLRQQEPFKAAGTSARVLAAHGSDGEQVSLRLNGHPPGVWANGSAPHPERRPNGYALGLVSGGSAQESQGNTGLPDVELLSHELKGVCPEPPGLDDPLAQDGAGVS

SMILES | AC50 [1] [µM] | AC50 [2] [µM] | AC50 (Melanocortin receptor 3) [µM] | AC50 [3] [µM] | AC50 [4] [µM] | AC50 [5] [µM] | AC50 (D(3) dopamine receptor) [µM] | AC50 (Histamine H1 receptor) [µM] | AC50 [6] [µM] | AC50 (Adenosine receptor A2a) [µM] | AC50 (Histamine H2 receptor) [µM] | AC50 [7] [µM] | AC50 [8] [µM] | AC50 [9] [µM] | AC50 [10] [µM] | AC50 [11] [µM]
O=C1CN=C(c2ccccc2)c2c(sc3c2CCCC3)N1 [BENTAZEPAM] | > 30 | > 30 |  |  |  |  |  |  |  |  |  |  |  |  |  | 
NS(=O)(=O)c1cc(-c2nnn[nH]2)c(NCc2cccs2)cc1Cl [AZOSEMIDE] |  |  | > 30 | > 30 | > 30 | > 30 | > 30 | > 30 | > 30 | > 30 | > 30 | > 30 | > 30 | 7.8 | > 30 | > 30
C=C1C[C@@H]2[C@H](CC[C@]3(C)C(=O)CC[C@@H]23)[C@@]2(C)C=CC(=O)C=C12 [EXEMESTANE] |  |  | > 30 | > 10 | > 10 | > 10 | > 30 | > 10 | > 10 | > 30 | > 10 | > 30 | > 30 | > 30 | > 10 | > 30
CCCC(=O)N1CCCN(c2nc(N)c3cc(OC)c(OC)cc3n2)CC1 [BUNAZOSIN] |  |  | > 30 | > 30 | > 30 | > 30 | 21 | > 30 | > 30 | > 30 | > 30 | > 30 | > 30 | > 30 | > 30 | > 30
O=C(O)CCn1c2c(c3ccccc31)C[C@H](NS(=O)(=O)c1ccc(F)cc1)CC2 [RAMATROBAN] | > 30 |  | > 30 | > 10 | > 10 | > 10 | > 30 | > 10 | > 10 | > 30 | > 30 | > 30 | > 30 | > 30 | > 10 | > 30
NC(=O)c1cccc2cn(-c3ccc([C@@H]4CCCNC4)cc3)nc12 [NIRAPARIB] | > 30 |  |  |  |  |  |  |  |  |  |  |  |  |  |  | 
CC(C)NCC1CCc2cc(CO)c([N+](=O)[O-])cc2N1 (stereo not given) [OXAMNIQUINE] |  |  | > 10 | > 10 | > 10 | > 10 | 7.4 | > 10 | > 10 | > 10 | > 10 | > 30 | > 30 | > 30 | > 10 | > 30
CC(C)(N)Cc1ccc(Cl)cc1 [CHLORPHENTERMINE] |  |  | > 30 | > 10 | > 10 | > 10 | > 30 | 14 | > 10 | > 30 | > 10 | 13.7 | 7.59 | > 30 | > 10 | > 30
NCc1ccccc1CC(=O)N[C@@H]1C(=O)N2C(C(=O)O)=C(CSc3nnnn3CC(=O)O)CS[C@H]12 [CEFORANIDE] | > 30 |  |  |  |  |  |  |  |  |  |  |  |  |  |  | 
O=C1CCC(N2C(=O)c3ccccc3C2=O)C(=O)N1 (stereo not given) [THALIDOMIDE] |  | > 30 | > 30 |  | > 10 | > 10 | > 10 |  | > 10 | > 30 | > 10 | > 10 | > 10 | > 30 | > 10 | > 30
O=C(Cn1ccnc1[N+](=O)[O-])NCc1ccccc1 [BENZNIDAZOLE] |  |  | > 30 | > 30 | > 30 | > 30 | > 30 | > 30 | > 30 | > 30 | > 30 | > 30 | > 30 | > 30 | > 30 | > 30
CN(C)[C@@H]1C(O)=C(C(N)=O)C(=O)[C@@]2(O)C(O)=C3C(=O)c4c(O)ccc(Cl)c4[C@@H](O)[C@H]3C[C@@H]12 [DEMECLOCYCLINE] |  |  | > 10 | > 10 | > 10 | > 10 | > 30 | > 10 | > 10 | > 10 | > 10 | > 10 | > 10 | > 30 | > 10 | > 30

From ChEMBL document CHEMBL5291721, “A preclinical secondary pharmacology resource illuminates target-adverse drug reaction associations of marketed drugs” (Nat Commun, 2023)
